Test [1] deals with S.aureus 42080 (MRSA). The test can be described thus: In vitro activity, minimum inhibitory concentration by agar dilution method in Mueller Hinton agar. Type of test: cell-based. The following applies: Staphylococcus aureus, agar dilution method on Mueller-Hinton agar, inoculum 10^4 CFU/spot. As for the experimental part: (§1) In vitro activity was determined by minimum inhibitory concentration in a microorganism spectum by the agar dilution method in Mueller Hinton agar.
(§2) The antibacterial Spectrum appears below: • MIC : Minimum Inhibiting Concentration Values

The test system of test [2] is S.aureus 6538 (MSSA). Described as above. The test is classed as cell-based. The following applies: Staphylococcus aureus, agar dilution method on Mueller-Hinton agar, inoculum 10^4 CFU/spot. As for the experimental part: as §1, §2
The test system of test [3] is MRSA (n=17). The test can be described thus: In vitro activity, MIC90 by agar dilution method in Mueller Hinton agar. The conditions noted are these: Staphylococcus aureus, agar dilution method on Mueller-Hinton agar, inoculum 10^5 CFU/spot. Type of test: cell-based, S. aureus. The method, then:
as §1, §2
Background: In agar dilution, organisms are placed on agar that contains the substance at set levels.

Each structure is given as a SMILES string. Converted amounts (≈) assume the structure as drawn.

What is called MIC is the lowest concentration that inhibits growth of the organism. For orientation: MIC90 means the lowest concentration that inhibits either 90% of growth or 90% of the strains tested, depending on the study. A low value points to greater potency. For the compound `Nc1nc(/C(=N/O)C(=O)N[C@@H]2C(=O)N3C(C(=O)[O-])=C(/C=C4\CCN(Cc5cc[n+](CC(=O)Nc6ccc(O)c(F)c6)cc5)C4=O)CS[C@H]23)ns1` [D, (6R,7R)-7-[(Z)-2-(5-Amino-[1,2,4]thiadiazol-3-yl)-2-hydroxyimino-acetylamino]-3-[(E)-1-[1-[(3-fluoro-4-hydroxy-phenylcarbamoyl)-methyl]-pyridin-1-ium-4-ylmethyl]-2-oxo-pyrrolidin-3-ylidenemethyl]-8-oxo-5-thia-1-aza-bicyclo[4.2.0]oct-2-ene-2-carboxylate], the MIC is 4 mg/L (≈ 5.53 µM) in test [1] and 1 mg/L (≈ 1.38 µM) in test [2]. In test [3], this compound displayed an MIC90 of 4 mg/L (≈ 5.53 µM).

With `Nc1nc(/C(=N/O)C(=O)N[C@@H]2C(=O)N3C(C(=O)[O-])=C(/C=C4\CCN(Cc5cc[n+](CC(=O)Nc6ccc(O)cc6)cc5)C4=O)CS[C@H]23)cs1` [A, (6R,7R)-7-[(Z)-2-(2-Amino-thiazol-4-yl)-2-hydroxyimino-acetylamino]-3-[(E)-1-[1-[(4-hydroxy-phenylcarbamoyl)-methyl]-pyridin-1-ium-4-ylmethyl]-2-oxo-pyrrolidin-3-ylidenemethyl]-8-oxo-5-thia-1-aza-bicyclo[4.2.0]oct-2-ene-2-carboxylate], the MIC in test [1] turned out to be 4 mg/L (≈ 5.68 µM); in test [2], 0.5 mg/L (≈ 0.709 µM). This compound returned an MIC90 in test [3] of 8 mg/L (≈ 11.4 µM).

As for `COc1cc(NC(=O)C[n+]2ccc(CN3CC/C(=C\C4=C(C(=O)[O-])N5C(=O)[C@@H](NC(=O)/C(=N\O)c6csc(N)n6)[C@H]5SC4)C3=O)cc2)ccc1O` [F, (6R,7R)-7-[(Z)-2-(2-Amino-thiazol-4-yl)-2-hydroxyimino-acetylamino]-3-[(E)-1-[1-[(4-hydroxy-3-methoxy-phenylcarbamoyl)-methyl]-pyridin-1-ium-4-ylmethyl]-2-oxo-pyrrolidin-3-ylidenemethyl]-8-oxo-5-thia-1-aza-bicyclo[4.2.0]oct-2-ene-2-carboxylate], the minimal inhibitory concentration (MIC) in test [1] worked out at 8 mg/L (≈ 10.9 µM); in test [2], 1 mg/L (≈ 1.36 µM). For the same compound, the MIC90 in test [3] stood at 8 mg/L (≈ 10.9 µM).

Take `Nc1nc(/C(=N/O)C(=O)N[C@@H]2C(=O)N3C(C(=O)[O-])=C(/C=C4\CCN(Cc5cc[n+](CC(=O)Nc6ccc(O)c(F)c6)cc5)C4=O)CS[C@H]23)cs1` [C, (6R,7R)-7-[(Z)-2-(2-Amino-thiazol-4-yl)-2-hydroxyimino-acetylamino]-3-[(E)-1-[1-[(3-fluoro-4-hydroxy-phenylcarbamoyl)-methyl]-pyridin-1-ium-4-ylmethyl]-2-oxo-pyrrolidin-3-ylidenemethyl]-8-oxo-5-thia-1-aza-bicyclo[4.2.0]oct-2-ene-2-carboxylate]: the results for the minimal inhibitory concentration (MIC) in test [1] and in test [2] were 4 mg/L (≈ 5.53 µM) and 1 mg/L (≈ 1.38 µM), respectively. In test [3], this compound displayed an MIC90 of 4 mg/L (≈ 5.53 µM).

`Nc1nc(/C(=N/O)C(=O)N[C@@H]2C(=O)N3C(C(=O)[O-])=C(/C=C4\CCN(Cc5ccc[n+](CC(=O)Nc6ccc(O)c(F)c6)c5)C4=O)CS[C@H]23)cs1` [G, (6R,7R)-7-[(Z)-2-(2-Amino-thiazol-4-yl)-2-hydroxyimino-acetylamino]-3-[(E)-1-[1-[(3-fluoro-4-hydroxy-phenylcarbamoyl)-methyl]-pyridin-1-ium-3-ylmethyl]-2-oxo-pyrrolidin-3-ylidenemethyl]-8-oxo-5-thia-1-aza-bicyclo[4.2.0]oct-2-ene-2-carboxylate]: the minimum inhibitory concentration (MIC) came out at 4 mg/L (≈ 5.53 µM) in test [1] and 0.5 mg/L (≈ 0.692 µM) in test [2]. The same compound came in with an MIC90 in test [3] of 8 mg/L (≈ 11.1 µM).

As to `Nc1nc(/C(=N/O)C(=O)N[C@@H]2C(=O)N3C(C(=O)[O-])=C(/C=C4\CCN(Cc5cc[n+](CC(=O)Nc6ccc(O)cc6)cc5)C4=O)CS[C@H]23)ns1` [B, (6R,7R)-7-[(Z)-2-(5-Amino-[1,2,4]thiadiazol-3-yl)-2-hydroxyimino-acetylamino]-3-[(E)-1-[1-[(4-hydroxy-phenylcarbamoyl)-methyl]-pyridin-1-ium-4-ylmethyl]-2-oxo-pyrrolidin-3-ylidenemethyl]-8-oxo-5-thia-1-aza-bicyclo[4.2.0]-oct-2-ene-2-carboxylate], the figures for the minimum inhibitory concentration (MIC) in test [1] and in test [2] were 4 mg/L (≈ 5.67 µM) and 0.5 mg/L (≈ 0.708 µM), respectively. Further, the MIC90 in test [3] is 4 mg/L (≈ 5.67 µM).

As to `Nc1nc(/C(=N/O)C(=O)N[C@@H]2C(=O)N3C(C(=O)[O-])=C(/C=C4\CCN(Cc5cc[n+](CC(=O)Nc6ccc(O)c(Cl)c6)cc5)C4=O)CS[C@H]23)cs1` [E, (6R,7R)-7-[(Z)-2-(2-Amino-thiazol-4-yl)-2-hydroxyimino-acetylamino]-3-[(E)-1-[1-[(3-chloro-4-hydroxy-phenylcarbamoyl)-methyl]-pyridin-1-ium-4-ylmethyl]-2-oxo-pyrrolidin-3-ylidenemethyl]-8-oxo-5-thia-1-aza-bicyclo[4.2.0]oct-2-ene-2-carboxylate], the figures for the MIC in test [1] and in test [2] were 4 mg/L (≈ 5.41 µM) and 0.5 mg/L (≈ 0.676 µM), respectively. Besides, the MIC90 in test [3] was 8 mg/L (≈ 10.8 µM).

The values are drawn from patent EP0838465A1, “Pyridinium-substituted (lactamylvinyl)cephalosporin derivatives, their preparation and their use as antibiotics” (F. HOFFMANN-LA ROCHE AG, priority 1996, dated 1998).
